“Also recorded” adds a separate entry of the source.
Key:
PK profile in rats = type: in vivo, rat
[1] = system: congestive heart failure subsequent to myocardial infarction; assay: Rat CHF subsequent to myocardial infarction, every other day dosing (Example 1); type: in vivo
Procedure: The effect of the compound of Formula I on cardiac function in congestive heart failure (CHF) was studied by inducing CHF subsequent to myocardial infarction (MI). Three groups of rats (n=12) were subjected to MI by 30 minute ligation of the left coronary artery followed by reperfusion. In a sham group, rats underwent a similar surgical procedure except that the left coronary artery was not occluded. Treatment with the compound of Formula I was initiated 2 days after reperfusion. In the MI groups, rats were dosed orally every other day with vehicle, 6 mg/kg or 20 mg/kg compound from day 2 to day 26 post MI. In the sham group, rats were dosed with vehicle on the same schedule. At 28 days post-MI, cardiac function, heart weight, and complete blood count (CBC) were measured. Histomorphometric analysis was performed on cardiac sections to quantify collagen deposition with picrosirius red staining (PSR), remodeling with hematoxylin and eosin staining and blood vessel number with immunohistochemistry for smooth muscle α-actin. • Male Sprague Dawley rats • Ligation of left coronary artery for 30 minutes followed by reperfusion • Post-ligation recovery for 28 days • Cardiac function 28 days after ischemia-reperfusion using a Millar pressure-volume catheter inserted in the left ventricle via the carotid artery • Record pressure-volume loops over several cardiac cycles and derived cardiac function parameters

[2] = system: diastolic dysfunction HF in obese ZSF1 rats; assay: ZSF1 model of heart failure with preserved ejection fraction (HFpEF), monotherapy; type: in vivo, rat
Excerpt: This study determined the effects of the compound of Formula I on cardiac function after 16 weeks of treatment in male obese ZSF1 rats.
Lean ZSF1 rats were used as controls.
The obese ZSF1 rat was developed by crossing diabetic Zucker fatty rats with spontaneously hypertensive heart failure (SHHF) rats
• Hypertension • Impaired renal function • Obesity • Type 2 diabetes • Insulin resistance, hyperinsulinemia • Hypertriglyceridemia, • Hypercholesterolemia

[3] = Preliminary PK profile in dogs; type: in vivo, dog
Excerpt: The preliminary PK profile of the compound of Formula I in dogs was studied and the results are shown in FIG. 19 and summarized in the following Table.

[4] = system: congestive heart failure subsequent to myocardial infarction; assay: Acute myocardial ischemia induced HF, duration of administration (regimens); type: in vivo, rat
global ischemia = assay: Acute cardioprotection: left ventricular function and coronary flow after global ischemia
PK profile in monkeys = type: in vivo, monkey; conditions: for bioavailability: po
[5] = system: congestive heart failure subsequent to myocardial infarction; assay: Rat CHF subsequent to myocardial infarction, delayed treatment (Example 2); type: in vivo
Procedure: The effect of delayed treatment with the compound of Formula I on cardiac function in congestive heart failure (CHF) was studied by inducing CHF subsequent to MI. Four groups of rats (n=11-12) were subjected to MI by 30 minute ligation of the left coronary artery followed by reperfusion. In a sham group, rats underwent a similar surgical procedure except that the left coronary artery was not occluded. Cardiac function was measured in one group at 28 days post-MI (Baseline). In the remaining MI groups, dosing with vehicle or test article was initiated on Day 28. Rats were orally dosed every other day with vehicle, 6 mg/kg or 20 mg/kg compound from day 28 until day 54 post-MI. At 56 days post-MI, cardiac function, heart weight and complete blood count (CBC) were measured. • Male Sprague Dawley rats • Ligation of left coronary artery for 30 minutes followed by reperfusion • Post-ligation recovery for 28 days • Cardiac function 28 days after ischemia-reperfusion using a Millar pressure-volume catheter inserted in the left ventricle via the carotid artery • Record pressure-volume loops over several cardiac cycles and derived cardiac function parameters

[6] = 6 or 20 mg/kg oral QOD day 2-26 post MI, 28 days post-MI
[7] = 6 or 20 mg/kg oral QOD day 2-26 post MI, 28 days post-MI, vs vehicle
[8] = histomorphometry of left ventricle, QOD dosing, 28 days
[9] = dog, in vivo, dogs, preliminary
[10] = 20 mg/kg daily for 7, 14 or 28 days
[11] = both sexes, monkey, in vivo, oral, monkeys, males and females
[12] = both sexes, monkey, in vivo, monkeys, males and females
[13] = in vivo, monkey, PK summary table
[14] = delayed administration, 6, 20 mg/kg QOD, 4 weeks
[15] = delayed: 6 or 20 mg/kg oral QOD day 28-54 post-MI, 56 days post-MI
[16] = delayed: 6 or 20 mg/kg oral QOD day 28-54 post-MI, 56 days post-MI, vs vehicle

Tmax (PK profile in rats; in vivo, oral, rat, PK summary table): 5 to 6 h | Sex difference in PK (PK profile in rats; rat): No | Accumulation (after multiple dosing) (PK profile in rats; rat, 4 wk GLP TK): Yes (4 wk | Dose proportional (PK profile in rats; rat, 10-150 mg/kg): Yes | clearance (PK profile in rats; rat, in vivo, PK summary table): 0.022 to 0.04 L/h/kg | half-life (PK profile in rats; rat, in vivo, PK summary table, mostly): 5 to 6 h | half-life (PK profile in rats; rat, in vivo, PK summary table, some longer): 10 to 15 h | bioavailability (PK profile in rats; rat, in vivo, po, rats, read-out: Oral bioavailability (Oral % F)): ~78% | AUC(0-inf) (PK profile in rats; rat, in vivo, rats): 1080 ± 328 µg·h/mL | AUC(0-t) (PK profile in rats; rat, in vivo, rats): 1010 ± 268 µg·h/mL | Cmax (PK profile in rats; rat, in vivo, rats): 91 ± 12 µg/mL | Tmax (PK profile in rats; rat, in vivo, rats): 6.7 ± 1.2 h | clearance (PK profile in rats; rat, in vivo, rats): 0.022 L/h/kg | half-life (PK profile in rats; rat, in vivo, rats): 5 ± 1.3 h | Vd (PK profile in rats; rat, in vivo, rats, read-out: Vss): 0.123 ± 0.056 L/kg | Accumulation (after multiple dosing) (PK profile in rats; rat, once daily dosing 2 weeks): Unclear | CL relative to hepatic blood flow rate (PK profile in rats; rats): lower than hepatic blow flow rate | Vss relative to plasma volume (PK profile in rats; rats): higher than plasma volume | Sex difference in PK ([3]; dog): No | Dose proportional ([3]; dog, 10-60 mg/kg): Yes | CL ([3]; dog, PK summary table): 0.252 ± 0.041 L/h/kg | half-life ([3]; dog, in vivo, PK summary table): 11 ± 2 h | bioavailability ([3]; dog, in vivo, po, dogs, read-out: Oral bioavailability (Oral % F)): ~25% | AUC(0-inf) [3, 9]: 10.2 ± 3.3 µg·h/mL | AUC(0-t) [3, 9]: 10.2 ± 3.3 µg·h/mL | Cmax [3, 9]: 2.6 ± 1.9 µg/mL | Tmax [3, 9]: 0.8 ± 0.4 h | clearance [3, 9]: 0.252 L/h/kg | half-life [3, 9]: 11.3 ± 1.8 h | Vd ([3]; dog, in vivo, dogs, preliminary, read-out: Vss): 0.249 ± 0.073 L/kg | Dose proportional ([3]; dog, up to 150 mg/kg): less than dose | Accumulation (after multiple dosing) ([3]; dog, no data, expected based on T1/2): some acc based | Vss relative to plasma volume ([3]; dogs): higher than plasma volume | Clearance in dogs relative to CL in rats ([3]; dogs vs rats): 5-10 × | Tmax ([3]; in vivo, oral, dog, PK summary table): ~1 h | Cmax (PK profile in monkeys; [11]): 10.9 ± 3.7 µg/mL | Tmax (PK profile in monkeys; [11]): 2.6 ± 1.6 h | AUC(0-inf) (PK profile in monkeys; [12]): 180 ± 68 µg·h/mL | AUC(0-t) (PK profile in monkeys; [12]): 176 ± 67 µg·h/mL | clearance (PK profile in monkeys; [12]): 0.026 L/h/kg | half-life (PK profile in monkeys; [12]): 34.6 ± 9.5 h | Vd (PK profile in monkeys; both sexes, monkey, in vivo, monkeys, males and females, read-out: Vss): 0.184 ± 0.028 L/kg | Tmax (PK profile in monkeys; in vivo, oral, monkey, PK summary table): ~1 h | clearance (PK profile in monkeys; [13]): 0.031 to 0.04 L/h/kg | half-life (PK profile in monkeys; [13]): 22 to 36 h | Systemic clearance compared with other species (PK profile in monkeys; monkey vs rats (slower than CL in dogs)): comparable to those in rats | Dose proportional (PK profile in monkeys; monkey, 10-60 mg/kg): Yes | Accumulation (after multiple dosing) (PK profile in monkeys; monkey, daily dosing, compared to Day 1 exposure): 2-3 fold higher | bioavailability (PK profile in monkeys; monkey, in vivo, monkeys, read-out: Oral bioavailability (Oral % F)): 36 to 48% | bioavailability (PK profile in monkeys; monkey, in vivo, monkeys, read-out: Oral bioavailability, group mean): 42 to 47% | Dose proportional (PK profile in monkeys; monkey, up to 150 mg/kg): less than dose | Dose proportionality of compound exposure (PK profile in monkeys; monkeys): increased dose proportionally | Vss relative to plasma volume (PK profile in monkeys; monkeys): higher than plasma volume | Sex difference in PK (PK profile in monkeys; monkeys, compound exposure or key PK parameters): no marked sex difference and No
Structure (SMILES): CC(C)(CC(=O)O)NC(=O)c1nc(C#N)c2cc(Oc3ccccc3)ccc2c1O [Formula I, 3-[(1-cyano-4-hydroxy-7-phenoxy-isoquinoline-3-carbonyl)-amino]-3-methyl-butyric acid]
collagen deposition ([1]; 6, 20 mg/kg QOD, 4 weeks): reduced; also recorded: reduction in cardiac hypertrophy | ESPVR slope [1, 6]: normalized | circulating hemoglobin level [1, 6]: did not produce a concomitant significant increase; also recorded: without any concomitant rise | other CBC parameters [1, 6]: did not produce a concomitant significant increase in circulating hemoglobin level or have a significant effect | arterial elastance [1, 7]: significantly improved | cardiac hypertrophy [1, 7]: significantly improved; also recorded: significant improvement; also recorded: reduced; also recorded: reduction in cardiac hypertrophy | cardiac output [1, 7]: significantly improved; also recorded: significant improvement | ejection fraction [1, 7]: significantly improved; also recorded: significant improvement; also recorded: improved at both doses) | end-diastolic pressure [1, 7]: significantly improved | end-systolic pressure [1, 7]: significantly improved | end-systolic volume [1, 7]: significantly improved; also recorded: significant improvement | relaxation time [1, 7]: significantly improved; also recorded: significant improvement | stroke volume [1, 7]: significantly improved; also recorded: significant improvement | stroke work [1, 7]: significantly improved; also recorded: significant improvement | cardiac contractility ([1]; every day or every other day for 28 days): significant improvement | hypervascularization in the peri-infarct area [1, 8]: significant reduction | left ventricular wall thinning / wall thickness [1, 8]: prevention of ventricular wall thinning; also recorded: preserved | hypertension ([2]; 20 mg/kg QOD, 16 weeks): Significant stabilization of | diastolic function ([2]; 20 mg/kg QOD, 16 weeks, end-diastolic pressure, left atrium weight, relaxation time, dp/dt minimum): improved; also recorded: Significant improvement in | blood pressure (mean, diastolic, systolic) ([2]; monotherapy): normalized | collagen deposition [4, 10]: All regimens reduced collagen | diastolic function [4, 10]: 14 and 28 days regimens improved | systolic function [4, 10]: 14 and 28 days regimens improved | cardiac hypertrophy ([4]; 20 mg/kg daily, 14 and 28 days regimens): reduced cardiac hypertrophy | coronary flow (global ischemia): improved | left ventricular function (global ischemia): improved | left ventricular function (LVDP) (global ischemia): improved | left ventricular function (LVEP) (global ischemia): improved | diastolic function [5, 14]: Some improvement in diastolic | systolic function [5, 14]: improved systolic function (ejection | cardiac hypertrophy [5, 15]: improved; also recorded: Some improvement in diastolic | dPdtmax [5, 15]: improved | end-diastolic volume [5, 15]: improved | hematocrit [5, 15]: no significant effect; also recorded: no erythropoietic effect | hemoglobin level [5, 15]: no significant effect; also recorded: no erythropoietic effect | relaxation time [5, 15]: improved; also recorded: improvement | ejection fraction [5, 16]: significantly improved; also recorded: improvement; also recorded: fraction improved at both doses) | end-systolic volume [5, 16]: significantly improved; also recorded: improvement | cardiac contractility ([5]; started 28 days after MI, every other day for 28 days): improvement

Source: patent US20250099455A1, “TREATMENT FOR CONGESTIVE HEART FAILURE” (FibroGen, Inc., priority 2022, published 2025)
